Measurements from patent US11530458B2, “Methods of using multi-ligand metal complexes to perform oxidative catalytic pretreatment of lignocellulosic biomass” (Board of Trustees of Michigan State University, priority 2014, dated 2022).

Tests used:
[1] = Catalytic AOP pretreatment of hybrid poplar with multi-ligand catalysts, then enzymatic hydrolysis (glucose conversion); parameters: species or system Populus nigra var. charkoviensis×caudina cv. NE-19; conditions: for Glucose (Glucose Conversions): hybrid poplar, 270 mM NaOH, 10% H2O2, 24 hrs 30° C.
Protocol: Enzymatic hydrolysis was performed on the solid poplar slurry at 50° C. in the same rotary shaker used for the extraction step. In preparation for hydrolysis, 20 μL of 72% (w/w) H2SO4 and 500 μL of 1 M sodium citrate buffer (pH 5) (prepared from sodium citrate and citric acid) were added to the solid poplar slurry to adjust the pH to 5 (optimum pH for the enzymes being used herein). Thereafter, 40 μL of 10 mM tetracycline (Sigma-Aldrich) stock solution was added to the solid poplar slurry to inhibit microbial growth. This step was followed by addition of a Cellic CTec2 and HTec2 (Novozymes A/S, Bagsværd, DK) enzyme cocktail at a loading of 30 mg protein/g glucan in the biomass prior to extraction and catalytic pretreatment, unless otherwise noted. The enzymatic reaction (50° C., 210 rpm, 72 hrs) was carried out at 5% solids concentration by adjusting the volume of the poplar slurry to 10 mL via the addition of deionized water.
Following enzymatic hydrolysis, the resulting solid and liquid phases were separated by centrifugation in same manner as in Example 2, to produce separated hydrolyzed solid and liquid phases. The amount of glucose and xylose released into the aqueous phase was quantified by High Performance Liquid Chromatography (HPLC) (Agilent 1260 Series equipped with an Aminex® HPX-87H column operating at 65° C., a mobile phase of 0.05 M H2SO4, and a flow rate of 0.6 mL per minute, and detection by refractive index). The yield of glucose and xylose released was defined as the amount of solubilized monosaccharide divided by the total sugar content of the poplar biomass prior to incubation and catalytic pretreatment as determined by chemical composition analysis.
Hybrid poplar (0.5 g) (same source as Example 2) was catalytically pretreated using 1 mM of a stock solution of multi-ligand copper complex, namely copper (II) 2,2′ bipyridine ethylenediamine (Cu(bpy)en) containing 40 mM copper sulphate pentahydrate, 40 mM bipyridine and 40 mM ethylenediamine in deionized water, together with 270 mM NaOH and 10% H2O2 loading (w/w) on biomass in a total 5 mL volume made with deionized water. Other components of the pretreatment catalyst include tetraacetylethylenediamine (TAED), ethylenediaminetetraacetic acid (EDTA), manganese sulfate, and magnesium sulfate. The catalytic pretreatment was allowed to proceed for approximately 24 hrs at 30° C.
Thereafter, the resulting poplar slurry was pH adjusted to 5 and hydrolyzed according to the process described in Example 3. Following enzymatic hydrolysis, the solid and liquid phases were separated by centrifugation as described in Example 3.

[2] = Catalytic AOP pretreatment of alkali-extracted switchgrass, then enzymatic hydrolysis (glucose yield); parameters: species or system Panicum virgatum; conditions: 24 hr AOP pretreatment of AESG, catalyst concentration per table
Protocol: Screening of various metal ligand complexes (hereinafter “catalysts”) was performed via catalytic alkaline oxidative pretreatment (AOP) pretreatment of alkali-extracted switchgrass (AESG). To prepare AESG, 80 grams of untreated switchgrass (Panicum virgatum, cv. Cave-In-Rock, hammer milled to pass a 5-mm screen, and stored at a moisture content of approximately 5%) was soaked in an aqueous solution of 5 g/L NaOH at 80° C. for 2 hrs. The weight-to-volume (w/v) solids loading of switchgrass during alkaline extraction was 10% (e.g., 10 g of biomass in 100 mL NaOH solution). […] The washed solids was recovered as AESG and air-dried for over 7 days.
[Al(III)(3,5-^tBu2-salophen)Cl] [3,5-^tBu2-salophen=N,N′-bis(3,5-di-tert-butylsalicylidene)-1,2-phenylenediamine], [Zn(II)(BPPA)Cl]Cl [BPPA=N,N-bis(6-pivaloylamido-2-pyridylmethyl)-N-(2-pyridylmethyl)amine], and [NEt4][Fe(III)(bpb)Cl2]
To study the effect of catalytic AOP pretreatment on AESG, pretreatment was performed in a 100 g/L aqueous suspension of AESG in the presence of each catalyst. […] After 24 hrs of incubation at 30° C. without mixing, the pretreated switchgrass slurry was washed using deionized water to remove the alkaline phosphate buffer.
The enzymatic digestibility of AOP-pretreated switchgrass was estimated by the yield of glucose during the enzymatic hydrolysis of AOP pretreated AESG. The percentage yield was calculated on the basis of the glucan content in AESG prior to catalytic AOP pretreatment.
For enzymatic hydrolysis, 500 μL of 1 M Na-citrate buffer (pH 5) and 40 μL of 10 mM tetracycline (Sigma-Aldrich) were added to AOP-AESG that was not dried after catalytic AOP pretreatment. Accellerase 1500 (42 FPU/mL; Danisco-Genencor, Palo Alto, Calif.) was added at 50 mg protein per gram of glucan in AESG. The total volume of the mixture (solid and liquid) was adjusted with deionized water to reach a 5% (w/v) solids concentration, and the samples were incubated at 50° C. during hydrolysis.

[3] = catalyst concentration not given

Row | Compound | Glucose yield of enzymatic hydrolysis (% of theoretical maximum) ([2]; pH 3, 24 hrs hydrolysis) | Glucose yield of enzymatic hydrolysis (% of theoretical maximum) ([2]; pH 3, 72 hrs hydrolysis) | Glucose yield of enzymatic hydrolysis (% of theoretical maximum) ([2]; pH 11, 24 hrs hydrolysis) | Glucose yield of enzymatic hydrolysis (% of theoretical maximum) ([2]; pH 11, 72 hrs hydrolysis) | Glucose yield of enzymatic hydrolysis (% of theoretical maximum) ([2]; pH 10, 24 hrs hydrolysis) | further results
1 | NCCN.[Cu+2].c1ccc(-c2ccccn2)nc1 [Cu(bpy)en, copper (II) 2,2′ bipyridine ethylenediamine] |  |  |  |  |  | Glucose (Glucose Conversions) ([1]; catalyst 1 mM): 55.00; Glucose (Glucose Conversions) ([1]; catalyst 2 mM): 48.15; Glucose yields compared to other catalyst systems ([1]; in words): higher glucose yields compared to other catalyst systems tested
2 | O=S(=O)([O-])[O-].[Cu+2] [CuSO4, copper sulfate] |  |  |  |  |  | Glucose (Glucose Conversions) [1, 3]: 40.62
3 | Fc1c(F)c(F)c(-c2c3nc(c(-c4c(F)c(F)c(F)c(F)c4F)c4ccc([nH]4)c(-c4c(F)c(F)c(F)c(F)c4F)c4nc(c(-c5c(F)c(F)c(F)c(F)c5F)c5ccc2[nH]5)C=C4)C=C3)c(F)c1F.[Fe+3] [Fe(III)-tetrakis-pentafluorophenyl)-porphyrin] | 29.18 ± 0.33 % of theoretical maximum | 35.38 ± 0.43 % of theoretical maximum | 35.37 ± 0.45 % of theoretical maximum | 40.25 ± 0.19 % of theoretical maximum |  | 
4 | C1=Cc2nc1c(-c1ccccc1)c1ccc([nH]1)c(-c1ccccc1)c1nc(c(-c3ccccc3)c3ccc([nH]3)c2-c2ccccc2)C=C1.[Fe+3] [Fe(III)-tetraphenylporphyrin] | 31.55 ± 1.6 % of theoretical maximum | 42.13 ± 1.89 % of theoretical maximum | 36.98 ± 1.3 % of theoretical maximum | 42.14 ± 0.63 % of theoretical maximum |  | 
5 | O=S(=O)([O-])[O-].[Mg+2] [MgSO4, magnesium sulfate] |  |  |  |  |  | Glucose (Glucose Conversions) [1, 3]: 25.17
6 | CC(C)(C)c1cc(C=Nc2ccccc2N=Cc2cc(C(C)(C)C)cc(C(C)(C)C)c2[O-])c([O-])c(C(C)(C)C)c1.[Al+3].[Cl-] [[Al(III)(3,5-^tBu2-salophen)Cl]] |  |  | 29.80 ± 0.25 % of theoretical maximum |  | 28.90 ± 0.17 % of theoretical maximum | Glucose yield of enzymatic hydrolysis (% of theoretical maximum) ([2]; pH 13, 24 hrs hydrolysis): 34.19 ± 0.41 % of theoretical maximum
7 | CC[N+](CC)(CC)CC.O=C([N-]c1ccccc1[N-]C(=O)c1ccccn1)c1ccccn1.[Cl-].[Cl-].[Fe+3] [[NEt4][Fe(III)(bpb)Cl2]] |  |  | 27.44 ± 1.54 % of theoretical maximum | 31.54 ± 0.23 % of theoretical maximum | 25.54 ± 0.21 % of theoretical maximum | Glucose yield of enzymatic hydrolysis (% of theoretical maximum) ([2]; pH 9, 24 hrs hydrolysis): 27.07 ± 0.6 % of theoretical maximum; Glucose yield of enzymatic hydrolysis (% of theoretical maximum) ([2]; pH 9, 72 hrs hydrolysis): 34.27 ± 0.21 % of theoretical maximum; Glucose yield of enzymatic hydrolysis (% of theoretical maximum) ([2]; pH 10, 72 hrs hydrolysis): 31.97 ± 0.13 % of theoretical maximum
8 | CC(C)(C)C(=O)Nc1cccc(CN(Cc2ccccn2)Cc2cccc(NC(=O)C(C)(C)C)n2)n1.[Cl-].[Cl-].[Zn+2] [[Zn^II(BPPA)Cl]Cl, [Zn(II)(BPPA)Cl]Cl] |  |  | 27.33 ± 0.62 % of theoretical maximum |  | 26.43 ± 0.31 % of theoretical maximum | Glucose yield of enzymatic hydrolysis (% of theoretical maximum) ([2]; pH 13, 24 hrs hydrolysis): 33.36 ± 0.3 % of theoretical maximum
9 | Fe(III)-phthalocyanine | 30.91 ± 0.24 % of theoretical maximum | 36.80 ± 2.84 % of theoretical maximum | 34.21 ± 0.23 % of theoretical maximum | 38.75 ± 1.52 % of theoretical maximum |  | 
